Results published in patent publication US20250283896A1, “PROBES AND METHODS FOR TARGETED VISUALIZATION OF NLRP3 INFLAMMASOMES” (VANDERBILT UNIVERSITY, priority 2022, published 2025).

How the values were obtained:
[1] = test system: primary mouse retinal microvascular endothelial cells (MRMEC); experiment: Cell viability assay with Calcein Deep Red AM ester; assay type: cell-based; details: 20 h, 70% ethanol in water; p<0.01
Protocol: Cell culture: Bone marrow-derived macrophages (BMDM), isolated from adult C57BL/6 mouse bone marrow, were purchased from ScienCell Research Laboratories (Carlsbad, CA) and cultured in ScienCell's phenol red-free Macrophage Medium (MaM) supplemented with 5% fetal bovine serum (FBS), Macrophage Growth Supplement (MaGS), and 1% Penicillin-Streptomycin (Pen, 100 U/mL; Strep, 100 μg/mL). Mouse Primary Retinal Microvascular Endothelial Cells (MRMEC), isolated from C57BL/6 mice, were purchased from Cell Biologics Inc. […] The medium was additionally supplemented with 10% FBS (R&D Systems, Minneapolis, MN). BMDMs and […] were incubated at 37° C., 5% CO2, and 95% relative humidity. Cell viability assay: […] (Passage 4) were seeded on sterile black 96-well plates in complete medium at a density of 1.5×10^4 cells per well. […] This fluorescent compound is redshifted relative to […]=510/540 nm), which is necessary to avoid interference from any InflammaProbe-1-dependent fluorescence during fluorometric measurements. […] Finally, fluorometric measurements were performed at ex/em=620/660 nm using the Cytation 5 microplate reader (BioTek Instruments, Inc., Winooski, VT). Fluorescence intensities were plotted as the percentage of cell viability relative to the control group. The data were expressed as the mean±SD of 6 replicates per group.

NLRP3 = NLRP3 (Mus musculus, UniProt Q8R4B8); details: murine model, literature; cited from earlier work
Chain of NLRP3 (Q8R4B8 whole entry): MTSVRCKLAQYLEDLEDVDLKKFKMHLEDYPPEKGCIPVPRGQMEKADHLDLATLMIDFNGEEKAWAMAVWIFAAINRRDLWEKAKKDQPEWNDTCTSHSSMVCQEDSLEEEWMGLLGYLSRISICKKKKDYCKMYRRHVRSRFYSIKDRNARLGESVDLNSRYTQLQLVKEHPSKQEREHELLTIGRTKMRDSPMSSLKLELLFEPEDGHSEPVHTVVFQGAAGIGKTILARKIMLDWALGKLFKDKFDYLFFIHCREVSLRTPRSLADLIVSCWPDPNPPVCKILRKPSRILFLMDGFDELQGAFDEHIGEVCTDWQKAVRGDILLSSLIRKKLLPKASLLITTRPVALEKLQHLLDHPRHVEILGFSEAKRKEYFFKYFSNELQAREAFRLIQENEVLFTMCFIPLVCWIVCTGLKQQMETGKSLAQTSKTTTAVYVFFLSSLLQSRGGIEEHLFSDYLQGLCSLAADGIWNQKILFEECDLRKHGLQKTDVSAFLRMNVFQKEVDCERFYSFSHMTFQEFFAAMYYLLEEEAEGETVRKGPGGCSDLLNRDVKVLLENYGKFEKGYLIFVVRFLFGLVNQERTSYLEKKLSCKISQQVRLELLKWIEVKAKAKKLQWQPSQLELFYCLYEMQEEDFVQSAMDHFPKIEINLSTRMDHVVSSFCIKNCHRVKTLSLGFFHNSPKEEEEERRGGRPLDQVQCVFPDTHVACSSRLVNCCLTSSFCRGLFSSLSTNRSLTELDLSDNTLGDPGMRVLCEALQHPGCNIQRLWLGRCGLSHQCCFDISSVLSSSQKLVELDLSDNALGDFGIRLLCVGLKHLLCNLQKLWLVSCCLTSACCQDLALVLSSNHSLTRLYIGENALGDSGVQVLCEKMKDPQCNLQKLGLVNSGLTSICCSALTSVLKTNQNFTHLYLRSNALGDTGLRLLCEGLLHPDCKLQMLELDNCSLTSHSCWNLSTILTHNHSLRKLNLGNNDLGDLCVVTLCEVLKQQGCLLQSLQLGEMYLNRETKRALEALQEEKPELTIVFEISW

NLRP3 inflammasome = target: T1, NLRP3 inflammasome (Mus musculus, UniProt Q8R4B8); experiment: Inhibition assay of IL-1β (ELISA) in LPS-primed and nigericin-stimulated BMDMs; assay type: cell-based, murine
T1 construct: InflammaProbe-1 could selectively stain macrophages that have been induced to express NLRP3; host or cells: primary C57BL/6 mouse bone marrow-derived macrophages (BMDM)
T1 sequence (Q8R4B8 whole entry): as above
Protocol: (§1) Cell culture: Bone marrow-derived macrophages (BMDM), isolated from adult C57BL/6 mouse bone marrow, were purchased from ScienCell Research Laboratories (Carlsbad, CA) and cultured in ScienCell's phenol red-free Macrophage Medium (MaM) supplemented with 5% fetal bovine serum (FBS), Macrophage Growth Supplement (MaGS), and 1% Penicillin-Streptomycin (Pen, 100 U/mL; Strep, 100 μg/mL). Mouse Primary Retinal Microvascular Endothelial Cells (MRMEC), isolated from C57BL/6 mice, were purchased from Cell Biologics Inc. (Chicago, IL) and cultured in Cell Biologics' phenol red-free Endothelial Cell Medium supplemented with 0.1% VEGF, 0.1% Heparin, 0.1% EGF, 0.1% ECGS, 0.1% Hydrocortisone, 2 mM L-Glutamine, and 1% Antibiotic-Antimycotic. The medium was additionally supplemented with 10% FBS (R&D Systems, Minneapolis, MN). BMDMs and MRMECs were incubated at 37° C., 5% CO2, and 95% relative humidity.
(§2) Inhibition assay of IL-1β and TNF-α: BMDMs were seeded in 12-well plates at a density of 5×10^4 cells per well. After an overnight incubation, the cells were primed with 50 ng/mL LPS for 3 h, treated with 1 to 10 µM InflammaProbe-1 or CY-09 for 1 h, and stimulated with 10 μM nigericin for another hour to induce NLRP3 activation, as described in the literature. Cell culture supernatants were assayed for mouse IL-1β and TNF-α by performing enzyme-linked immunosorbent assays (ELISA; Invitrogen, Waltham, MA) in accordance with the manufacturer's instructions. The data were expressed as the mean±SD of 3 replicates per group.

TNF-α = experiment: Off-target assay of LPS-induced TNF-α secretion (ELISA) in BMDMs; assay type: cell-based, murine; details: 10 μM; in comparison to InflammaProbe-1, p<0.05
Protocol: as §1
as §2, with “Cell culture supernatants were assayed for mouse IL-1β and TNF-α by performing enzyme-linked immunosorbent assays (ELISA; Invitrogen, Waltham, MA) in accordance with the manufacturer's instructions.” left out

| Compound | viability of MRMECs (positive control) [1] | NLRP3-mediated cellular secretion of IL-1β (NLRP3) | decrease of IL-1β levels in comparison to the LPS and nigericin control (NLRP3 inflammasome; 1 μM, p<0.05) [fold] | decrease of IL-1β levels in comparison to the LPS and nigericin control (NLRP3 inflammasome; 5 μM, p<0.01) [fold] | decrease of IL-1β levels in comparison to the LPS and nigericin control (NLRP3 inflammasome; 10 μM, p<0.01) [fold] | inhibition of NLRP3-mediated secretion of IL-1β (NLRP3 inflammasome; LPS-primed and nigericin-stimulated murine BMDM, 1 to 10 μM) | effect on levels of TNF-α (TNF-α) |
| --- | --- | --- | --- | --- | --- | --- | --- |
| CCO [70% ethanol, ethanol] | significantly decreased |  |  |  |  |  |  |
| O=C(O)c1ccc(/C=C2/SC(=S)N(Cc3cccc(C(F)(F)F)c3)C2=O)cc1 [CY-09] |  | suppressed | ~1.3 | ~2 | ~4 | dose-dependently inhibited | significantly decreased |
